From ChEMBL document CHEMBL5154877, “Novel Sphingosine Kinase 1 Inhibitor Suppresses Growth of Solid Tumor and Inhibits the Lung Metastasis of Triple-Negative Breast Cancer” (J Med Chem, 2022)
Blank lines part the entries; values can stand above or below the compound they belong to. Active and inactive are the calls of the source. The calls are words filed in the database; no cut-off is given here.

Experiments:
[1] = biological target: T1, Sphingosine kinase 2 (Homo sapiens, UniProt Q9NRA0)
T1 sequence (Q9NRA0 whole entry): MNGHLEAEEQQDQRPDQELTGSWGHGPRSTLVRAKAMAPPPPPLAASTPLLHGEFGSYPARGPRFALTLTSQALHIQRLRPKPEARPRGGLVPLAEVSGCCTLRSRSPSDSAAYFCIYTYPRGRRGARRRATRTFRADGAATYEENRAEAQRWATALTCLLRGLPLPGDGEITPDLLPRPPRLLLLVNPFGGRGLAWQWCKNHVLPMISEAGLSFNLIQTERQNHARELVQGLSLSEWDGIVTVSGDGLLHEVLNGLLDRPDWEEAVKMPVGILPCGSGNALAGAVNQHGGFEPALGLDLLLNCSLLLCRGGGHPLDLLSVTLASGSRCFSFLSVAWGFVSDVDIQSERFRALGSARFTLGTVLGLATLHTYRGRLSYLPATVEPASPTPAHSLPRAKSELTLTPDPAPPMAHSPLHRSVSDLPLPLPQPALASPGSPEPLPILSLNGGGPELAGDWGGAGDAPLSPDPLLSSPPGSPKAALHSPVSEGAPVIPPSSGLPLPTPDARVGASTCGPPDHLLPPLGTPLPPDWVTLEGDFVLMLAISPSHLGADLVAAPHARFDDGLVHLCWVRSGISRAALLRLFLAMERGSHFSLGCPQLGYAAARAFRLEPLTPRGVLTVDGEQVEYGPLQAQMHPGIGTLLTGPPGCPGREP

[2] = system: MDA-MB-231; assay: Antimetastatic activity against human MDA-MB-231 cells […] assessed as downregulation of MMP-9 at 30 uM incubated for 2 to 12 hrs by western blot analysis; format: functional, cell-based; conditions: time 2-12 hrs
[3] = system: MDA-MB-231; assay: Antimetastatic activity against human MDA-MB-231 cells xenografted in BALB/c mouse assessed as decrease in plasma S1P levels at 50 mg/kg, ip for 28 days; format: functional, organism-based; conditions: time 28.0 day
[4] = system: HT-29; assay: Induction of cell cycle arrest in human HT-29 cells assessed as accumulation at G0/G1 phase at 10 uM incubated for 24 hrs by PI staining based flow cytometry; format: functional
[5] = system: HT-29; assay: Induction of cell cycle arrest in human HT-29 cells assessed as accumulation at G0/G1 phase at 30 uM incubated for 24 hrs by PI staining based flow cytometry; format: functional
[6] = system: HT-29; assay: Induction of cell cycle arrest at G1 phase in human HT-29 cells assessed as increase in P21 expression at 30 uM incubated for 24 hrs by Western blot analysis; format: functional, cell-based
[7] = system: HT-29; assay: Induction of cell cycle arrest at G0/G1 phase in human HT-29 cells assessed as decrease in p-Rb expression at 10 to 30 uM incubated for 24 hrs by Western blot analysis; format: functional, cell-based; conditions: dose 10-30 µM
[8] = system: HT-29; assay: Induction of cell cycle arrest at G0/G1 phase in human HT-29 cells assessed as reduction in cyclinA expression at 10 to 30 uM incubated for 24 hrs by Western blot analysis; format: functional, cell-based; conditions: dose 10-30 µM
[9] = system: HT-29; assay: Induction of cell cycle arrest at G0/G1 phase in human HT-29 cells assessed as reduction in cyclinE1 expression at 10 to 30 uM incubated for 24 hrs by Western blot analysis; format: functional, cell-based; conditions: dose 10-30 µM
[10] = system: HT-29; assay: Induction of cell cycle arrest at G0/G1 phase in human HT-29 cells assessed as reduction in cyclinD1 expression at 10 to 30 uM incubated for 24 hrs by Western blot analysis; format: functional, cell-based; conditions: dose 10-30 µM
[11] = system: HT-29; assay: Induction of cell cycle arrest at G0/G1 phase in human HT-29 cells assessed as reduction in CDK6 expression at 10 to 30 uM incubated for 24 hrs by Western blot analysis; format: functional, cell-based; conditions: dose 10-30 µM
[12] = system: MDA-MB-231; assay: Induction of apoptosis in human MDA-MB-231 cells assessed as early apoptotic cells at 10 uM incubated for 48 hrs by Annexin V-FITC/PI staining based flow cytometry (reference value: 2.35 %); format: functional
[13] = system: HT-29; assay: Induction of apoptosis in human HT-29 cells at 30 uM incubated for 48 hrs by Annexin V-FITC/PI staining based flow cytometry relative to control; format: functional
[14] = system: HT-29; assay: Induction of apoptosis in human HT-29 cells assessed as increase in PARP cleavage at 30 uM measured after 48 hrs by western blot analysis; format: functional, cell-based
[15] = system: HT-29; assay: Induction of apoptosis in human HT-29 cells assessed as increase in caspase 3 cleavage at 30 uM measured after 48 hrs by western blot analysis; format: functional, cell-based
[16] = system: HT-29; assay: Induction of apoptosis in human HT-29 cells assessed as increase in caspase 8 cleavage at 30 uM measured after 48 hrs by western blot analysis; format: functional, cell-based
[17] = system: MDA-MB-231; assay: Induction of cell cycle arrest at G0/G1 phase in human MDA-MB-231 cells at 20 uM incubated for 24 hrs by PI staining based flow cytometry; format: functional
[18] = system: MDA-MB-231; assay: Induction of apoptosis in human MDA-MB-231 cells assessed as viable cells at 10 uM incubated for 48 hrs by Annexin V-FITC/PI staining based flow cytometry (reference value: 94.3 %); format: functional; conditions: read-out: Activity
[19] = system: MDA-MB-231; assay: Induction of apoptosis in human MDA-MB-231 cells assessed as viable cells at 30 uM incubated for 48 hrs by Annexin V-FITC/PI staining based flow cytometry (reference value: 94.3 %); format: functional; conditions: read-out: Activity
[20] = system: MDA-MB-231; assay: Antimigratory activity against human MDA-MB-231 cells assessed as reduction in cell migration at 20 uM incubated for 8 hrs by crystal violet staining microscopy based transwell migration assay; format: functional
[21] = Tmax in mouse at 50 mg/kg, po; format: ADME, organism-based; conditions: in vivo
[22] = Tmax in mouse at 50 mg/kg, ip; format: ADME, organism-based; conditions: in vivo
[23] = Cmax in mouse at 50 mg/kg, po; format: ADME, organism-based; parameters: dose 50 mg/kg, route po; conditions: in vivo
[24] = Cmax in mouse at 50 mg/kg, ip; format: ADME, organism-based; parameters: dose 50 mg/kg, route ip; conditions: in vivo
[25] = AUClast in mouse at 2 mg/kg, iv; format: ADME, organism-based; parameters: time 0 - last, dose 2 mg/kg, route iv; conditions: in vivo
[26] = AUClast in mouse at 50 mg/kg, po; format: ADME, organism-based; parameters: time 0 - last, dose 50 mg/kg, route po; conditions: in vivo
[27] = AUClast in mouse at 50 mg/kg, ip; format: ADME, organism-based; parameters: time 0 - last, dose 50 mg/kg, route ip; conditions: in vivo
[28] = Half life in mouse at 2 mg/kg, iv; format: ADME, organism-based; conditions: in vivo
[29] = Half life in mouse at 50 mg/kg, po; format: ADME, organism-based; conditions: in vivo
[30] = Half life in mouse at 50 mg/kg, ip; format: ADME, organism-based; conditions: in vivo
[31] = Clearance in mouse at 2 mg/kg, iv; format: ADME, organism-based; conditions: in vivo
[32] = Oral bioavailability in mouse at 50 mg/kg; format: ADME, organism-based; conditions: in vivo
[33] = Bioavailability in mouse at 50 mg/kg, ip; format: ADME, organism-based; conditions: in vivo
[34] = system: HT-29; assay: Antitumor activity against human HT-29 cells xenografted in BALB/c mouse assessed as tumor growth inhibition at 50 mg/kg/day, ip for 3 weeks and measured every 3 days by caliper method; format: functional, organism-based
[35] = Toxicity in BALB/c mouse xenografted with human HT-29 cells assessed as change in body weight at 50 mg/kg/day, ip for 3 weeks and measured every 3 days; format: organism-based; conditions: in vivo, 504 h
[36] = system: MDA-MB-231; assay: Antitumor activity against human MDA-MB-231 cells xenografted in BALB/c mouse assessed as tumor growth inhibition at 100 mg/kg/day, ip for 3 weeks and measured every 3 days by caliper method; format: functional, organism-based
[37] = system: MDA-MB-231; assay: Antitumor activity against human MDA-MB-231 cells xenografted in BALB/c mouse assessed as inhibition in lung metastasis at 75 mg/kg, ip treated for 28 days by H and E staining based assay; format: functional, organism-based; conditions: time 28.0 day
[38] = Toxicity in BALB/c mouse xenografted with human MDA-MB-231 cells assessed as body weight change at 50 to 75 mg/kg, ip administrated for 28 days; format: organism-based; conditions: in vivo, 672 h, dose 50-75 mg/kg, time 28 day
[39] = system: MDA-MB-231; assay: Antimetastatic activity against human MDA-MB-231 cells […] assessed as inhibition of NF-kappaB p65 phosphorylation at 30 uM incubated for 2 to 12 hrs by Western blot analysis; format: functional, cell-based; conditions: time 2-12 hrs
[40] = system: MDA-MB-231; assay: Antimetastatic activity against human MDA-MB-231 cells […] assessed as inhibition of FSCN1 phosphorylation at 30 uM incubated for 2 to 12 hrs by western blot analysis; format: functional, cell-based; conditions: time 2-12 hrs
[41] = system: MDA-MB-231; assay: Antimetastatic activity against human MDA-MB-231 cells […] assessed as upregulation of phosphorylated beta-catenin at 30 uM incubated for 2 to 12 hrs by western blot analysis; format: functional, cell-based; conditions: time 2-12 hrs
[42] = system: MDA-MB-231; assay: Antimetastatic activity against human MDA-MB-231 cells xenografted in BALB/c mouse assessed as decrease in plasma S1P levels at 75 mg/kg, ip for 28 days; format: functional, organism-based; conditions: time 28.0 day
[43] = system: MDA-MB-231; assay: Induction of apoptosis in human MDA-MB-231 cells assessed as necrotic cells at 10 uM incubated for 48 hrs by Annexin V-FITC/PI staining based flow cytometry (reference value: 1.42 %); format: functional
[44] = system: MDA-MB-231; assay: Induction of apoptosis in human MDA-MB-231 cells assessed as late apoptotic cells at 10 uM incubated for 48 hrs by Annexin V-FITC/PI staining based flow cytometry (reference value: 1.96 %); format: functional
[45] = system: MDA-MB-231; assay: Induction of apoptosis in human MDA-MB-231 cells assessed as early apoptotic cells at 30 uM incubated for 48 hrs by Annexin V-FITC/PI staining based flow cytometry (reference value: 2.35 %); format: functional
[46] = system: MDA-MB-231; assay: Induction of apoptosis in human MDA-MB-231 cells assessed as late apoptotic cells at 30 uM incubated for 48 hrs by Annexin V-FITC/PI staining based flow cytometry (reference value: 1.96 %); format: functional
[47] = system: MDA-MB-231; assay: Induction of apoptosis in human MDA-MB-231 cells assessed as necrotic cells at 30 uM incubated for 48 hrs by Annexin V-FITC/PI staining based flow cytometry (reference value: 1.42 %); format: functional
[48] = system: MDA-MB-231; assay: Antimigratory activity against human MDA-MB-231 cells assessed as inhibition of cell migration in human MDA-MB-231 cells at 20 uM incubated for 15 hrs by wound healing assay; format: functional, cell-based
[49] = system: CAL-51; assay: Antimigratory activity against human CAL-51 cells assessed as inhibition in cell migration at 30 uM incubated for 16 hrs by crystal violet staining microscopy based transwell migration assay; format: functional

IC50 [1]: > 10 µM
SMILES: Cc1cc(CS(=O)(=O)c2ccccc2)cc(OCc2ccc(CN3CCCCC3CO)cc2)c1 (centres undefined)

Tmax [21]: 0.83 h | Tmax [22]: 0.18 h | Cmax [23]: 171 ng/mL | Cmax [24]: 7860 ng/mL | AUC(0-t) [25]: 408 ng·h/mL | AUC(0-t) [26]: 242 ng·h/mL | AUC(0-t) [27]: 8060 ng·h/mL | half-life [28]: 2.23 h | half-life [29]: 8.13 h | half-life [30]: 4.2 h | clearance [31]: 81.1 mL/min/kg | bioavailability [32]: 2.38% | bioavailability [33]: 79%
SMILES: Cc1cc(OCc2ccc(CN3CCC[C@@H]3CO)cc2)cc(CS(=O)(=O)c2ccccc2)c1Br
Activity [2]: Active | Activity [3]: Active | Activity [4]: Active | Activity [5]: Active | Activity [6]: Active | Activity [7]: Active | Activity [8]: Active | Activity [9]: Active | Activity [10]: Active | Activity [11]: Active | Activity [12]: 3.67% | Activity [13]: 50% | Activity [14]: Active | Activity [15]: Active | Activity [16]: Active | Activity [17]: Active | viability at 10 µM [18]: 65.4% | viability at 30 µM [19]: 36.4% | Activity [20]: Active | Activity [34]: Active | Activity [35]: Non-Toxic | Activity [36]: Active | Activity [37]: Active | Activity [38]: Non-Toxic | Activity [39]: Active | Activity [40]: Active | Activity [41]: Active | Activity [42]: Active | Activity [43]: 3.69% | Activity [44]: 9.16% | Activity [45]: 32.2% | Activity [46]: 24.5% | Activity [47]: 6.82% | Activity [48]: Active | Activity [49]: Active
